Holding throughout (type): biochemical
One assay has as its target JMJD3 (Homo sapiens, UniProt O15054). Nature of the assay: AlphaScreen JMJD3 demethylase inhibition. To be noted: for inhibition at 25 µM: compound at 25 μM. The text has this: (§1) Compounds 4 and 5 also appreciably decrease enzyme activity by 65 % and 60 %, respectively. […] We proceeded to investigate the inhibitory activity of 3 further by evaluation of its IC50 value against JMJD3. The results highlighted a low micromolar activity of compound 3 against JMJD3 (Table 1). […] Similar outcomes were obtained for 3 versus JMJD2C and JMJD2D (Table 1). […] Relative to JMJD1A and FBXL11, we found a decrease in enzymatic activity (Table 1) toward Jarid1A and Jarid1B of 33 % and 26 % by 3.
(§2) 2,4-pyridine dicarboxylic acid (2,4-PC) is purchased from Acros Organics (New Jersey, […]
GSK J1 is purchased from Sigma Aldrich (Italy, Catalog number SML0709).
JIB-04 is purchased from Sigma-Aldrich (St. Louis, MO, Catalog number SML0808).
AlphaLISA anti-mIgG acceptor beads from PerkinElmer (Santa Clara, CA, Catalog number […]
AlphaLISA anti-rIgG acceptor beads from PerkinElmer (Santa Clara, CA, Catalog number […]
AlphaScreen Streptavidin-conjaugated donor beads from PerkinElmer (Santa Clara, CA, […]
Primary antibody 2 from BPS (Catalog number 52140B1).
Primary antibody 5 from BPS (Catalog number 52140E).
Primary antibody 6 from BPS (Catalog number 52140F).
Primary antibody 16-2 from BPS (Catalog number 52140P2).
Primary antibody 17-3 from BPS(Catalog number 52140Q3). […]
Biotinylated histone H3 peptide substrate (UTX and JMJD3) (BPS and Anaspec). […]
JMJD3 Assay Buffer from BPS. […]
4x Detection buffer from BPS (Catalog number 52301).
All of the enzymatic reactions were conducted at room temperature for 60 minutes in a 10 µl mixture containing assay buffer, histone H3 peptide substrate, demethylase enzyme, and the test compound. These 10 µl reactions were carried out in wells of 384-well Optiplate (PerkinElmer). The serial dilution of the compounds was first performed in 100% DMSO with the highest concentration at 1 mM. Each intermediate compound dilution (in 100% DMSO) will then get directly diluted 30x fold into assay buffer for 3.3x conc (DMSO). Enzyme only and blank only wells have a final DMSO concentration of 1%. From this intermediate step, 3 µl of compound is added to 4 µl of demethylase enzyme dilution is incubated for 30 minutes at room temperature. After this incubation, 3 µl of peptide substrate is added. The final DMSO concentration is 1%.
After enzymatic reactions, 5 µl of anti-Mouse Acceptor beads (PerkinElmer, diluted 1:500 with 1x detection buffer) or 5 µl of anti-Rabbit Acceptor beads (PerkinElmer, diluted 1:500 with 1x detection buffer) and 5 µl of Primary antibody (BPS, diluted 1:200 with 1x detection buffer) were added to the reaction mix. After brief shaking, plate was incubated for 30 minutes. Finally, 10 µl of AlphaScreen Streptavidin-conjugated donor beads (Perkin, diluted 1:125 with 1x detection buffer) were added. In 30 minutes, the samples were measured in AlphaScreen microplate reader (EnSpire Alpha 2390 Multilabel Reader, PerkinElmer).
For JMJD3, Donor and acceptor beads and primary antibody were incubated for 1 h,[9] for the remaining enzymes for 30’.
5 µL of AlphaScreen assay buffer containing EDTA (30 mM) and NaCl (800 mM) to stop the […]
Except for JMJD3, the experiments were performed by BPS Bioscience.
Enzyme activity assays were performed in duplicates at each concentration. The A-screen intensity data were analyzed and compared. In the absence of the compound, the intensity in each data set was defined as 100% activity. In the absence of enzyme, the intensity in each data set was defined as 0% activity. The values of % activity versus a series of compound concentrations were then plotted using non-linear regression analysis of Sigmoidal dose-response curve generated with the equation Y=B+(T-B)/1+10((LogEC50-X)×Hill Slope), where Y=percent activity, B=minimum percent activity, T=maximum percent activity, X= l ogarithm of compound and Hill Slope=slope factor or Hill coefficient. The IC 50 value was determined by the concentration causing a half -maximal percent activity.

The next assay concerns the target T1, UTX (Homo sapiens, UniProt O15550).
T1 construct: purchased BPS Bioscience (contract assay)
Nature of the assay: AlphaScreen UTX demethylase inhibition (selectivity). To be noted: at 10 μM; NI = no significant inhibition at 10 μM.
Text: as §1, §2
(§3) GSK J1 is purchased from Sigma Aldrich (Italy, Catalog number SML0709). […]
(§4) After enzymatic reactions, 5 µl of anti-Mouse Acceptor beads (PerkinElmer, diluted 1:500 with 1x detection buffer) or 5 µl of anti-Rabbit Acceptor beads (PerkinElmer, diluted 1:500 with 1x detection buffer) and 5 µl of Primary antibody (BPS, diluted 1:200 with 1x detection buffer) were added to the reaction mix. […] In 30 minutes, the samples were measured in AlphaScreen microplate reader (EnSpire Alpha 2390 Multilabel Reader, PerkinElmer). […]
(§5) Enzyme activity assays were performed in duplicates at each concentration. The A-screen intensity data were analyzed and compared. […] The IC 50 value was determined by the concentration causing a half -maximal percent activity.

The target of a further assay is T2, JMJD1A (Homo sapiens, UniProt Q9Y4C1).
T2 construct: purchased BPS Bioscience (contract assay)
T2 sequence (Q9Y4C1 1-1321): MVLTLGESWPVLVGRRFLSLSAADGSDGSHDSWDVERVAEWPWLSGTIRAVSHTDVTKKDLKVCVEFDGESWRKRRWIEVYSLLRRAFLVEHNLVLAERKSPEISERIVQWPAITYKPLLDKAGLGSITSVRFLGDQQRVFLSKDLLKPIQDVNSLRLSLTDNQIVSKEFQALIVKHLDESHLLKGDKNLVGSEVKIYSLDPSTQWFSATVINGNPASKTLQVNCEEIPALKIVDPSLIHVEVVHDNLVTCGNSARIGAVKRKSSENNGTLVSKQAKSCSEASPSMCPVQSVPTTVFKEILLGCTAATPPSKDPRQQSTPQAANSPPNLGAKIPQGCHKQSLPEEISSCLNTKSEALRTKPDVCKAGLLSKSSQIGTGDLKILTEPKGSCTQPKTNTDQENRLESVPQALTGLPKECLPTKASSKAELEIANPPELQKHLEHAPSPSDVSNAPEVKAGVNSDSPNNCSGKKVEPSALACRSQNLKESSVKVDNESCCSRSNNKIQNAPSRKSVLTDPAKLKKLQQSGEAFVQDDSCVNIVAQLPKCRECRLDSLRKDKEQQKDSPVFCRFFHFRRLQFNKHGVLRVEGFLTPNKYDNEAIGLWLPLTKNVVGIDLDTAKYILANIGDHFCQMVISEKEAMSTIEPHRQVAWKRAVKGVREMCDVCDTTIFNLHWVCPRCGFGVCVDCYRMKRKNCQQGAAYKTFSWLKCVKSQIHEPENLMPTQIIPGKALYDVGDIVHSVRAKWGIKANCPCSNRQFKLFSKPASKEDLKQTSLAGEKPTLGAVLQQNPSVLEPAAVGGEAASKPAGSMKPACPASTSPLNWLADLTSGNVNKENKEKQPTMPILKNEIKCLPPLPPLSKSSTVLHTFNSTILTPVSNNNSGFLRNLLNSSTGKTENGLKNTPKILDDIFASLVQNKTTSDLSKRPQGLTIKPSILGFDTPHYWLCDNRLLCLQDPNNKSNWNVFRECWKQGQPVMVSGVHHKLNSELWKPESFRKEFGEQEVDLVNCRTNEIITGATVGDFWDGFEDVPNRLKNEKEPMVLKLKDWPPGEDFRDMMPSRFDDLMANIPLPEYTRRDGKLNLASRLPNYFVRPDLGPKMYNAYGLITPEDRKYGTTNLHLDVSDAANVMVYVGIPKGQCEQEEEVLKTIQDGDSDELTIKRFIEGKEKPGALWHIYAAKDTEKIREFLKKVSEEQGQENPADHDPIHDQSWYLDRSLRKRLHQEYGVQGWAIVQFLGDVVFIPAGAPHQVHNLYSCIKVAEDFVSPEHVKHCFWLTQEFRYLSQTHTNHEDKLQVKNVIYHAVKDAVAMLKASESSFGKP
Nature of the assay: AlphaScreen JMJD1A demethylase inhibition (selectivity).
Text: as §1, §2, §3, §4, §5

The target in the next assay is T3, FBXL11 (Homo sapiens, UniProt Q9Y2K7).
T3 construct: purchased BPS Bioscience (contract assay)
T3 sequence (Q9Y2K7 1-1162): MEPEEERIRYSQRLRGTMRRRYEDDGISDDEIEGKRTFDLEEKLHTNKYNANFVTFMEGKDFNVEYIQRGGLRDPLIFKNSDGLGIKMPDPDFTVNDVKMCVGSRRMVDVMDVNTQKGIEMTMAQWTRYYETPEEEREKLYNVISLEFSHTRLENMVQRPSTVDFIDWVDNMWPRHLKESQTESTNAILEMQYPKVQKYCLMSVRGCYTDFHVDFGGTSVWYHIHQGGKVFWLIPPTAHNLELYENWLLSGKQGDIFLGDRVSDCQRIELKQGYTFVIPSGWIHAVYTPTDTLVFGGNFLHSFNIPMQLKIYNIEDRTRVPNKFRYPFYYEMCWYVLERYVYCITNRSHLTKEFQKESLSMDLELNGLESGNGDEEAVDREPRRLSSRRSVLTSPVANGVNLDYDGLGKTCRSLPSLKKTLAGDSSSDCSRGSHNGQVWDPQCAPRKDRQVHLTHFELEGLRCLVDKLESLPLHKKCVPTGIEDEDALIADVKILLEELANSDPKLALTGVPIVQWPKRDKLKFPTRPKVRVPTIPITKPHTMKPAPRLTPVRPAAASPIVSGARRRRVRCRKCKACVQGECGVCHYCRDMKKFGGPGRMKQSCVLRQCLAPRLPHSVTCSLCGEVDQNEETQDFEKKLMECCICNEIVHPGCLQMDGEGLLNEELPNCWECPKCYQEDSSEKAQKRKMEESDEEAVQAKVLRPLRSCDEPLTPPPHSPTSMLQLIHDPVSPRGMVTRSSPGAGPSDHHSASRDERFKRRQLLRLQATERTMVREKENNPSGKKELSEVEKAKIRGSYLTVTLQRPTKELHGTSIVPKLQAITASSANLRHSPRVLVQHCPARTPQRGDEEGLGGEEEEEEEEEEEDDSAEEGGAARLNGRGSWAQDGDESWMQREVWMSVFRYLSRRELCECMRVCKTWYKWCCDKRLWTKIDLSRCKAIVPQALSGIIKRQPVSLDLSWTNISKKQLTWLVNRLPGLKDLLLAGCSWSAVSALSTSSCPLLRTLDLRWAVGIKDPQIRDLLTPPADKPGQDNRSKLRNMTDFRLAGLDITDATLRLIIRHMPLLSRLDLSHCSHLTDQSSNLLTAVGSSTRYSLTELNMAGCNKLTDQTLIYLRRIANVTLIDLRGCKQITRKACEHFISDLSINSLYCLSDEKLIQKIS
Kind of assay: AlphaScreen FBXL11 demethylase inhibition (selectivity).
Text: as §1, §2, §3, §4, §5

The next assay addresses T4, Jarid1A (Homo sapiens, UniProt P29375).
T4 construct: purchased BPS Bioscience (contract assay)
Nature of the assay: AlphaScreen Jarid1A demethylase inhibition (selectivity).
Text: as §1, §2, §3, §4, §5

In another assay the target is T5, Jarid1B (Homo sapiens, UniProt Q9UGL1).
T5 construct: purchased BPS Bioscience (contract assay)
T5 sequence (Q9UGL1 whole entry): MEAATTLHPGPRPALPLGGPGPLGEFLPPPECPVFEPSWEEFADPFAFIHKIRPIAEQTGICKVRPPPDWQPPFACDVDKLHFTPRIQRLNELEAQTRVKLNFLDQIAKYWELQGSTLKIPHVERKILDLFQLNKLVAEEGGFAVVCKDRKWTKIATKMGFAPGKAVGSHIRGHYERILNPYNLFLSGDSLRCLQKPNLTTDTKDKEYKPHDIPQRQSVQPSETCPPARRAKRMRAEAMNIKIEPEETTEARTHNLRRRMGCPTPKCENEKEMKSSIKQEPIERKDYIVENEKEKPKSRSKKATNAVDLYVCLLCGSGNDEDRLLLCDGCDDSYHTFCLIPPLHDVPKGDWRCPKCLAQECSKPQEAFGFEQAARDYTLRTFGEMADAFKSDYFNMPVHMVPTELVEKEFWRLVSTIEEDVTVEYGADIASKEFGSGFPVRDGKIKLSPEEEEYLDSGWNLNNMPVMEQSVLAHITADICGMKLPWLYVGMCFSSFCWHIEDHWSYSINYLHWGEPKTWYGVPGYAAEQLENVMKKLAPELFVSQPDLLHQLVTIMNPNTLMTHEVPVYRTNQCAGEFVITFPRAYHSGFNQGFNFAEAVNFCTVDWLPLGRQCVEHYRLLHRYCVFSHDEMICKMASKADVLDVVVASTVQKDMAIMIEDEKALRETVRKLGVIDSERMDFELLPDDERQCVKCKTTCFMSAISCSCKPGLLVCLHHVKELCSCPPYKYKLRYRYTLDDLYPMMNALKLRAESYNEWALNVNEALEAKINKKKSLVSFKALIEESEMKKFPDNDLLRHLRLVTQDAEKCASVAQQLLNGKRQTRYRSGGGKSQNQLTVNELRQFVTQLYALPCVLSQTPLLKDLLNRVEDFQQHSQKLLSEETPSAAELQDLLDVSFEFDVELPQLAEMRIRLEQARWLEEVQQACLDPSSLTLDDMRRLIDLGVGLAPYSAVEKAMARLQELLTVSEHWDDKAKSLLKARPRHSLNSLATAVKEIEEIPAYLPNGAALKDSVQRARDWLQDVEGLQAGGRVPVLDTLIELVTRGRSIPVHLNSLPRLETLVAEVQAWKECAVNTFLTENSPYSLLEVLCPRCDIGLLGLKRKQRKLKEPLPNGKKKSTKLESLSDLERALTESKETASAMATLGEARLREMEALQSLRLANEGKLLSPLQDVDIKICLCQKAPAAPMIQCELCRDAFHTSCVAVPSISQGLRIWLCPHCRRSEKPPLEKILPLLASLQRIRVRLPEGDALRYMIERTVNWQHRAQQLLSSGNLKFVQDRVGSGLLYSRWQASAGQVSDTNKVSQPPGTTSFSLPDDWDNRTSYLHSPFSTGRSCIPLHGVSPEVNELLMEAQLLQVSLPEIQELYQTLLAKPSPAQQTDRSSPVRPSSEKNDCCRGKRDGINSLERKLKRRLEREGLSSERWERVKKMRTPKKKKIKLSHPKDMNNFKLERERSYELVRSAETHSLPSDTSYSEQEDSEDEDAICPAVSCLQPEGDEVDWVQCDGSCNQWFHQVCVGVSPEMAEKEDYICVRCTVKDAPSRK
Kind of assay: AlphaScreen Jarid1B demethylase inhibition (selectivity).
Text: as §1, §2, §3, §4, §5

JMJD3, sequence (O15054 whole entry): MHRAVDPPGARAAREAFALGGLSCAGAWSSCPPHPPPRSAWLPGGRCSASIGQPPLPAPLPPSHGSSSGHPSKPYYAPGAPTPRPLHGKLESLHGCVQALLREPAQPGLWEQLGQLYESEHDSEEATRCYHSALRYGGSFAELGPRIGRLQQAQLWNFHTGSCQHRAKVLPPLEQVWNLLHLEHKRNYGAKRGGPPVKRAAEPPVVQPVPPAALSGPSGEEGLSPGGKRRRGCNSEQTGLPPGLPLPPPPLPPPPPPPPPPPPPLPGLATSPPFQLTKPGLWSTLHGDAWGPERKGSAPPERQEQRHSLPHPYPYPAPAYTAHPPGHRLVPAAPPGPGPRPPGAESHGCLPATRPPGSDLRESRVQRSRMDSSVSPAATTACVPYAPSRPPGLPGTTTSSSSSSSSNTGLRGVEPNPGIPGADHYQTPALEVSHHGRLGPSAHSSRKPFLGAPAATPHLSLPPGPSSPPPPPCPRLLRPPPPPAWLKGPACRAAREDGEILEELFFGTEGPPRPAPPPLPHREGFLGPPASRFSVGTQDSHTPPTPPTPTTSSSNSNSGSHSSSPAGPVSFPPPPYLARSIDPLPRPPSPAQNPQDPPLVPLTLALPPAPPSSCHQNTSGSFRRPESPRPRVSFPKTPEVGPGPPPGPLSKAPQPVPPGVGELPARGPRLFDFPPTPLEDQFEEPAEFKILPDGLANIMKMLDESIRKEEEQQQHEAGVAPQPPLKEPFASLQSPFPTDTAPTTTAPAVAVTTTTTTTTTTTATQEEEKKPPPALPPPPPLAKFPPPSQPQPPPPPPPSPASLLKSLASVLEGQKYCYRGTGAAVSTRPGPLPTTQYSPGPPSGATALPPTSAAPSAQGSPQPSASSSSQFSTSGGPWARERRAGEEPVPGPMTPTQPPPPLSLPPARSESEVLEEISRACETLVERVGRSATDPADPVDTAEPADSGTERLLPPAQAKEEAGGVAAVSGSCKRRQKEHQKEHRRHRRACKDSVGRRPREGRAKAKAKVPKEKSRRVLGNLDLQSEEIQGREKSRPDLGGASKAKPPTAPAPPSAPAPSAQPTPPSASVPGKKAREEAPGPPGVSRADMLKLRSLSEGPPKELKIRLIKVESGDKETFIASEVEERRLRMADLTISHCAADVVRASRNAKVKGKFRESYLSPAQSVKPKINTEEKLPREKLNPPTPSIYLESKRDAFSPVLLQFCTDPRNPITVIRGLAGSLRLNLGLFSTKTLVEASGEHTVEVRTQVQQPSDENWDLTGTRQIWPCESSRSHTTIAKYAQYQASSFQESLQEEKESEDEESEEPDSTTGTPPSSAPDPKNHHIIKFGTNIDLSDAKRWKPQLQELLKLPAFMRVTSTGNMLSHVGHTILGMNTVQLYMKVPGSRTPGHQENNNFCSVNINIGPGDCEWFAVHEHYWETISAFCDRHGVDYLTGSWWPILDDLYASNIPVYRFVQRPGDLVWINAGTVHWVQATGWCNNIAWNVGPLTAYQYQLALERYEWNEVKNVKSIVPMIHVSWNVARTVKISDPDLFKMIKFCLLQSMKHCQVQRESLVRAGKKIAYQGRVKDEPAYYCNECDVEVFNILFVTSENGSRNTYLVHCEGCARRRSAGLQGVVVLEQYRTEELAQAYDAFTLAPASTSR
T4 sequence (P29375 whole entry): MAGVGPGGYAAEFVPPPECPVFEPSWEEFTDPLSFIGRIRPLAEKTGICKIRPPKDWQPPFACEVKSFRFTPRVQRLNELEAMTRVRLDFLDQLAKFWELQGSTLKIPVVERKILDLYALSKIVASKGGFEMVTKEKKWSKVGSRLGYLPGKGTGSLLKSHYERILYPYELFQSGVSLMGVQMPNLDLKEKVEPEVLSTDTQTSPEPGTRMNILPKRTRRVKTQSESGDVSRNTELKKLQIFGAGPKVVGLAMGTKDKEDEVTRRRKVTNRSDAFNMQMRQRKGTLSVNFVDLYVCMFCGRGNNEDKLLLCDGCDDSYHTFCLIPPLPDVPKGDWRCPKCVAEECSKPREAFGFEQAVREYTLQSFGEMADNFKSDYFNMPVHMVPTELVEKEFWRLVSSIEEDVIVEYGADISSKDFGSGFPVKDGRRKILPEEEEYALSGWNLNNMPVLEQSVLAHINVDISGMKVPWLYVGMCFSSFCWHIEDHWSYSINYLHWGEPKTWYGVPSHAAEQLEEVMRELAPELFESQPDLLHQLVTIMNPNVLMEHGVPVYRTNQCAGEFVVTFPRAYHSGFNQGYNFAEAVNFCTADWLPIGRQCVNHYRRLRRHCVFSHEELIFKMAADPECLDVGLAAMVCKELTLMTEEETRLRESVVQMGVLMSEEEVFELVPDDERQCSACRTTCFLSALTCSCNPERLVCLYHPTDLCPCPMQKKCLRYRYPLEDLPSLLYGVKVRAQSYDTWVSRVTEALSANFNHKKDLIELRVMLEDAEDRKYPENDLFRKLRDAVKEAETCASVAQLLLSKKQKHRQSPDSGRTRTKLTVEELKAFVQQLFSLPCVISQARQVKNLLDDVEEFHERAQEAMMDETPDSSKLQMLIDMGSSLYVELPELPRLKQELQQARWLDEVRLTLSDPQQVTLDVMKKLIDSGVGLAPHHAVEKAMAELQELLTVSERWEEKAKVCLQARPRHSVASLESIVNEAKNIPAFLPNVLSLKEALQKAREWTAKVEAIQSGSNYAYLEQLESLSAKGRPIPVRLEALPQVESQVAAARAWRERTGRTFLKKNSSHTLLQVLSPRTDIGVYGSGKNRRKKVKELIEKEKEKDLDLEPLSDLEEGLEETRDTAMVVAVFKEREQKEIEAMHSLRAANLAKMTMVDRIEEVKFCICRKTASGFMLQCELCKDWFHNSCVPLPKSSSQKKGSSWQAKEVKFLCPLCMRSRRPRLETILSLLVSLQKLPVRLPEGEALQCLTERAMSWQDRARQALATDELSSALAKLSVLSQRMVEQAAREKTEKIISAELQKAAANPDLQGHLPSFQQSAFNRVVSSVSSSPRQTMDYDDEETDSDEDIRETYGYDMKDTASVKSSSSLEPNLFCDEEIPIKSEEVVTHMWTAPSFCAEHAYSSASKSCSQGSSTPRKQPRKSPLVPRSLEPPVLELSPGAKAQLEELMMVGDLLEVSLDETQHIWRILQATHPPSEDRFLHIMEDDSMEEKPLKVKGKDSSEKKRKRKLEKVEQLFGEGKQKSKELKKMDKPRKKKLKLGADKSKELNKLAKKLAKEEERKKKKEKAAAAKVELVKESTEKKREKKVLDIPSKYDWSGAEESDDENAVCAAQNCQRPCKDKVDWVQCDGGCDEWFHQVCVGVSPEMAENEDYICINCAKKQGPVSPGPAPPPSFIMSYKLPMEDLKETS

On JMJD3, `COc1ncc(-c2cnc3c(C(=O)O)ccc(C(=O)O)c3c2)c(OC)n1` [Compound 3, 3‐(2,4‐dimethoxypyrimidin‐5‐yl)quinoline‐5,8‐dicarboxylic acid] displayed an inhibition at 25 µM of 90%. In addition, the IC50 on JMJD3 (read-out: IC50±SEM JMJD3) is 1.52 ± 0.5 µM; against JMJD1A (footnote b of Table 1), above 10 µM; against FBXL11 (footnote b of Table 1), above 10 µM; against Jarid1A (footnote b of Table 1) it was above 10 µM; at Jarid1B (footnote b of Table 1) it was above 10 µM. At UTX, the “Percent Inhibition UTX” value is given as “no significant inhibition”. Further, the inhibition at 10 µM at JMJD1A (at 10 μM, read-out: Percent Inhibition JMJD1A) came to 12%; on FBXL11 (at 10 μM, read-out: Percent Inhibition FBXL11), 15%; at Jarid1A (at 10 μM, read-out: Percent Inhibition Jarid1A), 33%; at Jarid1B (at 10 μM, read-out: Percent Inhibition Jarid1B) it was 26%.
At JMJD3, `NS(=O)(=O)c1ccc(-c2cnc3c(C(=O)O)ccc(C(=O)O)c3c2)cc1` [Compound 4] returned an inhibition at 25 µM of 65%.
At JMJD3, `O=C(O)c1ccc(-c2cnc3c(C(=O)O)ccc(C(=O)O)c3c2)s1` [Compound 5] came in with an inhibition at 25 µM of 60%.
`COc1cc(-c2cnc3c(C(=O)O)ccc(C(=O)O)c3c2)c(OC)nn1` [Compound 6] displayed an inhibition at 25 µM at JMJD3 of around 25%.
Compound `COc1cc(-c2cnc3c(C(=O)O)ccc(C(=O)O)c3c2)ccc1F` [Compound 7] returned an inhibition at 25 µM at JMJD3 of around 12%.

Source of the values: article PMC6055880, “Virtual Fragment Screening Identification of a Quinoline‐5,8‐dicarboxylic Acid Derivative as a Selective JMJD3 Inhibitor” (Chemmedchem, 2018).
